Measured values: paper PMC9409043, “Serotonin 5-HT6 Receptor Ligands and Butyrylcholinesterase Inhibitors Displaying Antioxidant Activity—Design, Synthesis and Biological Evaluation of Multifunctional Agents against Alzheimer’s Disease” (International Journal of Molecular Sciences, 2022)
Values joined by “and” are separate entries in the source; they are usually repeats but may differ in a detail not shown here. Identical values can stand only once.

How the values were obtained:
human 5-HT6 receptor = target: T1, human 5-HT6 receptor (Homo sapiens, UniProt P50406); assay: 5-HT6 receptor radioligand binding assay ([3H]-LSD, CHO-K1 membranes)
T1 construct: purchased PerkinElmer; host or cells: CHO-K1 cells, stably transfected (membrane preparation)
Description: 5-HT6R binding affinity and cholinesterase (AChE/BuChE) inhibitory activity. We evaluated the pharmacological properties of the final compounds 12–19 in vitro according to the previously described, well-established protocols. Their affinities for recombinant human 5-HT6 receptors (h5-HT6R) were tested in a radioligand binding assay and the inhibitory potencies against human recombinant AChE (hAChE) and BuChE isolated from human plasma (hBuChE) in the spectrophotometric Ellman’s assay. […].
We prepared 10 mM of stock solutions of tested compounds in DMSO. Serial dilutions of compounds were prepared in a 96-well microplate in assay buffers using the automated pipetting system epMotion 5070 (Eppendorf). Each compound was tested in 8 concentrations from 10^−5 to 10^−12 M (final concentration).
The radioligand binding assay was performed using membranes from CHO-K1 cells stably transfected with the human 5-HT6 receptor (PerkinElmer) according to the previously described procedure. All assays were carried out in duplicates. We prepared 50 µL working solution of the tested compounds, 50 µL [^3H]-LSD (final concentration 2.5 nM) and 150 µL diluted membranes (15 µg protein per well) in assay buffer (50 mM Tris, pH 7.4, 10 mM MgCl2, 0.1 mM EDTA) and transferred them to polypropylene 96-well microplates using a 96-well pipetting station Rainin Liquidator (MettlerToledo). Methiothepin (10 μM) was used to define nonspecific binding. The microplate was covered with sealing tape, mixed and incubated for 60 min at 27 °C. The reaction was terminated by rapid filtration through GF/B filter mate presoaked with 0.5% polyethyleneimine for 30 min. Ten rapid washes with 200 µL 50 mM Tris buffer (4 °C, pH 7.4) were performed using the automated harvester system Harvester-96 MACH III FM (Tomtec). The filter mates were dried at 37 °C in a forced air fan incubator and then solid scintillator MeltiLex was melted on filter mates at 90 °C for 5 min. Radioactivity was counted in MicroBeta2 scintillation counter (PerkinElmer). Data were fitted to a one-site curve-fitting equation with Prism 6 (GraphPad Software) and Ki values were estimated from the Cheng−Prusoff equation.

[1] = target: T2, human recombinant AChE (hAChE) (Homo sapiens, UniProt P22303); assay: biochemical; conditions: mean ± SEM of at least three experiments
T2 construct: purchased Sigma-Aldrich (Steinheim, Germany)
Description: (§1) 5-HT6R binding affinity and cholinesterase (AChE/BuChE) inhibitory activity. […] Their affinities for recombinant human 5-HT6 receptors (h5-HT6R) were tested in a radioligand binding assay and the inhibitory potencies against human recombinant AChE (hAChE) and BuChE isolated from human plasma (hBuChE) in the spectrophotometric Ellman’s assay.
(§2) The assay was based on spectrophotometric Ellman’s method and was performed in 96-well microplates with the reagents purchased from Sigma-Aldrich (Steinheim, Germany) according to the previously described procedure. hBuChE was kindly donated by Vivonics (Bedford, MA, USA). […] After 5 minutes of the enzymatic reaction, the changes in absorbance were measured at 412 nm, using a microplate reader (SPECTROstar Nano; BMG Labtech, Ortenberg, Germany). First, compounds were tested at the screening concentration of 10 µM. Based on the equation 100 − (S/B) × 100 (where S and B were the respective enzyme activities with and without the test sample, respectively) the percentage inhibition of each enzyme for each compound was calculated. […] The IC50 values were calculated using nonlinear regression (GraphPad Prism 5; GraphPad Software, San Diego, CA, USA) by plotting the residual enzyme activities against the applied inhibitor concentration. […] All experiments were performed in triplicate.

[2] = target: T3, BuChE isolated from human plasma (hBuChE) (Homo sapiens, UniProt P06276); assay: biochemical; type: biochemical; conditions: for IC50: mean ± SEM of at least three experiments
T3 construct: BuChE isolated from human plasma (hBuChE); tissue Vivonics (Bedford, MA, USA), donated; host or cells: human plasma
Description: as §1, §2

[3] = ABTS free radical scavenging assay
Source text: Antioxidant activity. As mentioned before, oxidative stress is one of the components of AD pathomechanism and is characterised by an imbalance in the production of ROS. One of the mechanisms by which antioxidants reduce the concentration of ROS and therefore prevent or slow the cell damage caused by free radicals is scavenging them. Thus, we tested the scavenging ability of compounds 12–19 in the spectrophotometric ABTS assay that we used before. In this assay, the ability of compounds to scavenge ABTS^• radicals, which are generated from 2,2’-azino-bis(3-ethylbenzothiazoline-6-sulphonic acid) (ABTS), is measured. We tested the compounds at three concentrations: 30, 75 and 150 μM after 5, 30 and 60 min of incubation using Trolox, a water-soluble vitamin E analogue, as a reference (Table S1 in Supporting information).
The spectrophotometric ABTS assay was performed in 96-well microplates with the reagents purchased from Sigma-Aldrich (Steinheim, Germany) according to the previously described procedure. Stock solutions of the tested compounds (6.4 mM) and reagents were prepared in DMSO and water, respectively. 2,2′-Azino-bis(3-ethylbenzothiazoline-6-sulfonic acid) free radical (ABTS^•) was prepared by mixing the stock solution of ABTS (7 mM) and […] (2.45 mM) in ratio 1:1. The mixture was kept in the dark at 4 °C for 16 h. The obtained solution of (ABTS^•) was diluted with water 20 times. Then, the test compound or water or mixture of DMSO/water in the appropriate ratio (0.02 mL) was added to ABTS^• solution (0.18 mL). The three concentrations of the test compounds and Trolox were tested in triplicate: 0.15, 0.075 and 0.03 mM. Changes in absorbance were measured at 734 nm after 5, 30 and 60 min, using a microplate reader (SPECTROstar Nano; BMG Labtech, Ortenberg, Germany). Based on the equation ((A0 − A)/A0) × 100% (where A0 and A were the absorbances without and with the test compound, respectively) the percentage of free radical scavenging activity was calculated. The results are presented as mean ± SD.

T3 sequence (P06276 29-602): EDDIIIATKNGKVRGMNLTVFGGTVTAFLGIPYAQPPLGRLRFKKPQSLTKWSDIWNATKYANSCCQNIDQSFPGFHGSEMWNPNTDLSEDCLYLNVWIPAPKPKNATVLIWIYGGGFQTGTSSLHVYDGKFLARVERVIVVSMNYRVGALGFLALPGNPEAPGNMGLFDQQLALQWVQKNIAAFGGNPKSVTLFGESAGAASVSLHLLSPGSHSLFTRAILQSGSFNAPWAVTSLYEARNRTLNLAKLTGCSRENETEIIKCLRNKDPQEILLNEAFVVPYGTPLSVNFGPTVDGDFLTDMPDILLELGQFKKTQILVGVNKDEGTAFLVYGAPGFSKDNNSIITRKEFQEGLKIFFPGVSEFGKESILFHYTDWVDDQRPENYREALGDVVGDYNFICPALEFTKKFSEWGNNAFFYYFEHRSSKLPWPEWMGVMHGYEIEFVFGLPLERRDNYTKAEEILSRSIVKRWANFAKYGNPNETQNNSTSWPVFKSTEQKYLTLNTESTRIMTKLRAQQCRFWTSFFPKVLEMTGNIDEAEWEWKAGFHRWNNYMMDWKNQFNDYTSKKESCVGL
T2 sequence (P22303 32-614): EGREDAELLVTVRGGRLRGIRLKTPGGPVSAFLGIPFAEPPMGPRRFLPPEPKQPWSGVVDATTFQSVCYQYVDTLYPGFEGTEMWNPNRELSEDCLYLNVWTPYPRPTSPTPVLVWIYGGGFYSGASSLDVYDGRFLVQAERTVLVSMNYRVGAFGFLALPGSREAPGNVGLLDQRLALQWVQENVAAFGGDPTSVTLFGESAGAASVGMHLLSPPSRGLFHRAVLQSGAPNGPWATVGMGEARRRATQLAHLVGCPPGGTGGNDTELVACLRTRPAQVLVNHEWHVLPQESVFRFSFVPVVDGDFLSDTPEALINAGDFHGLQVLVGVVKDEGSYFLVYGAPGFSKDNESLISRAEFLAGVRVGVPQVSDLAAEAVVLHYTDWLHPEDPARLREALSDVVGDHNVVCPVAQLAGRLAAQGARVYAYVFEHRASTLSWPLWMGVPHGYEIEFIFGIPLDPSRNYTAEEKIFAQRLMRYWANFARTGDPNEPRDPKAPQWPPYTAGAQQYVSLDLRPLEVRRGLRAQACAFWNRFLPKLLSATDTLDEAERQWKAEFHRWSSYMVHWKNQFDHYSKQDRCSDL
T1 sequence (P50406 whole entry): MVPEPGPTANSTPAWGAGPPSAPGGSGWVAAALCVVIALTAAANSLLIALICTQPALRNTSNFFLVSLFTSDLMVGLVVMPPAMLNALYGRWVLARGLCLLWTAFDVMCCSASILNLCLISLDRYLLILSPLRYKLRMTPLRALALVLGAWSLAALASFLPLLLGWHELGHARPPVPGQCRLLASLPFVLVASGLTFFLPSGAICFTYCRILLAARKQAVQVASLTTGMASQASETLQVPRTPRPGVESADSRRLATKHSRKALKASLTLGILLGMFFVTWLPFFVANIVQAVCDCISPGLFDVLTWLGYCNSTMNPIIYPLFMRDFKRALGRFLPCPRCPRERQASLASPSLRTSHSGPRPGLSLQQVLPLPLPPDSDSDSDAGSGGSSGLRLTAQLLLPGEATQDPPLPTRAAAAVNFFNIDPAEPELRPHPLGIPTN

In the case of `O=S(=O)(c1ccccc1)n1ccc2c(OCCNCCCC3CCN(Cc4ccccc4)CC3)cccc21` [Compound 14, 3-(1-Benzylpiperidin-4-yl)-N-(2-((1-(phenylsulfonyl)-1H-indol-4-yl)oxy)ethyl)propan-1-amine], the Ki (human 5-HT6 receptor) is reported as 22 ± 2 nM, the IC50 [1] is reported as 930 ± 35 nM and the “fold higher potency against hBuChE than hAChE” value ([2]; hAChE IC50 vs. hBuChE IC50) is reported as 60 fold. For the same molecule, the IC50 [2] was 16 ± 1 nM, the “% of ABTS• reduction ± SD” value ([3]; 30 µM, 5 min) was 5±3% and the “% of ABTS• reduction ± SD” value ([3]; 30 µM, 30 min) was 5±3%. For the same molecule, the “% of ABTS• reduction ± SD” value ([3]; 30 µM, 60 min) was 6±3%, the “% of ABTS• reduction ± SD” value ([3]; 75 µM, 5 min) was 13±1% and the “% of ABTS• reduction ± SD” value ([3]; 75 µM, 30 min) was 18±0%. The “% of ABTS• reduction ± SD” value ([3]; 75 µM, 60 min) was 21±0%, the “% of ABTS• reduction ± SD” value ([3]; 150 µM, 5 min) was 20±0% and the “% of ABTS• reduction ± SD” value ([3]; 150 µM, 30 min) was 29±0%. For the same molecule, the “% of ABTS• reduction ± SD” value ([3]; 150 µM, 60 min) was 35±0% and 35%.
`O=S(=O)(c1ccccc1)N1CCc2c(OCCNCC3CCN(Cc4ccccc4)CC3)cccc21` [Compound 15, N-((1-Benzylpiperidin-4-yl)methyl)-2-((1-(phenylsulfonyl)indolin-4-yl)oxy)ethan-1-amine] gave a Ki (human 5-HT6 receptor) of 267 ± 9 nM, an IC50 [1] of 8210 ± 225 nM and an IC50 [2] of 5410 ± 100 nM. For the same molecule, the “% of ABTS• reduction ± SD” value ([3]; 30 µM, 5 min) was 10±0%, the “% of ABTS• reduction ± SD” value ([3]; 30 µM, 30 min) was 10±1% and the “% of ABTS• reduction ± SD” value ([3]; 30 µM, 60 min) was 11±0%. The “% of ABTS• reduction ± SD” value ([3]; 75 µM, 5 min) was 11±1%, the “% of ABTS• reduction ± SD” value ([3]; 75 µM, 30 min) was 13±1% and the “% of ABTS• reduction ± SD” value ([3]; 75 µM, 60 min) was 15±1%. For the same molecule, the “% of ABTS• reduction ± SD” value ([3]; 150 µM, 5 min) was 19±1%, the “% of ABTS• reduction ± SD” value ([3]; 150 µM, 30 min) was 29±1% and the “% of ABTS• reduction ± SD” value ([3]; 150 µM, 60 min) was 36±4%.
In the case of `O=c1[nH]c2c(OCCNCCC3CCN(Cc4ccccc4)CC3)cccc2n1Cc1ccccc1` [Compound 18, 1-Benzyl-4-(2-((2-(1-benzylpiperidin-4-yl)ethyl)amino)ethoxy)-1,3-dihydro-2H-benzo[d]imidazol-2-one], the Ki (human 5-HT6 receptor) is reported as 142 ± 20 nM, the IC50 [1] is reported as 2860 ± 68 nM and the IC50 [2] is reported as 1160 ± 24 nM. The “% of ABTS• reduction ± SD” value ([3]; 30 µM, 5 min) was 10±1%, the “% of ABTS• reduction ± SD” value ([3]; 30 µM, 30 min) was 23±1% and the “% of ABTS• reduction ± SD” value ([3]; 30 µM, 60 min) was 27±1%. For the same molecule, the “% of ABTS• reduction ± SD” value ([3]; 75 µM, 5 min) was 11±1%, the “% of ABTS• reduction ± SD” value ([3]; 75 µM, 30 min) was 31±1% and the “% of ABTS• reduction ± SD” value ([3]; 75 µM, 60 min) was 36±2%. The “% of ABTS• reduction ± SD” value ([3]; 150 µM, 5 min) was 13±0%, the “% of ABTS• reduction ± SD” value ([3]; 150 µM, 30 min) was 33±0% and the “% of ABTS• reduction ± SD” value ([3]; 150 µM, 60 min) was 40±0%.
